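Dose response: 5 concentrations. Exposure: 48 h. Format: 96-well plates. Endpoint: linear interpolation; highest concentration if not reached. The concentration for 50% growth inhibition is given as GI50. TGI is the concentration that stops growth completely.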
Legend:
Assay in all cases: growth of human tumour cells (NCI), 48 h
A498 renal = system: A498 renal
HCT-15 colon = system: HCT-15 colon
HOP-62 NSCLC = system: HOP-62 NSCLC
K-562 leukemia = system: K-562 leukemia
KM12 colon = system: KM12 colon
M14 melanoma = system: M14 melanoma
NCI-H226 lung = system: NCI-H226 lung
OVCAR-8 ovarian = system: OVCAR-8 ovarian
SK-MEL-28 melanoma = system: SK-MEL-28 melanoma
SNB-19 CNS = system: SNB-19 CNS

Structure (SMILES)	GI50 (A498 renal) [µM]	TGI (A498 renal) [µM]	GI50 (HCT-15 colon) [µM]	TGI (HCT-15 colon) [µM]	GI50 (HOP-62 NSCLC) [µM]	TGI (HOP-62 NSCLC) [µM]	GI50 (K-562 leukemia) [µM]	TGI (K-562 leukemia) [µM]	GI50 (KM12 colon) [µM]	TGI (KM12 colon) [µM]	GI50 (M14 melanoma) [µM]	TGI (M14 melanoma) [µM]	GI50 (NCI-H226 lung) [µM]	TGI (NCI-H226 lung) [µM]	GI50 (OVCAR-8 ovarian) [µM]	TGI (OVCAR-8 ovarian) [µM]	GI50 (SK-MEL-28 melanoma) [µM]	TGI (SK-MEL-28 melanoma) [µM]	GI50 (SNB-19 CNS) [µM]	TGI (SNB-19 CNS) [µM]
COc1c(C(N)=O)cc(-c2ccc(Cl)cc2)cc1-c1ccc(S(N)(=O)=O)cc1	9.03	> 23.3	9.66	> 25	18.8	> 25	7.94	> 20.3	11	> 25	> 17.2	> 25	9.52	> 25	9.33	> 25	16.9	> 25	14	> 25
COc1ccc2c3ccnc(C(F)(F)F)c3n(CCCCN)c2c1	5.25	18	10.8	25	8.54	21.3	5.73	22.8	5.1	17.6	4.93	17.3	7.42	30.5	8.95	26.4	1.92	3.82	12.2	30.7
Nc1nc2cc(Cl)ccc2n1N	–	> 100	–	> 100	–	> 100	–	> 100	–	> 100	–	> 100	–	> 100	–	> 100	–	> 100	–	> 100

Source: PubChem BioAssay (NCI)
